Laboratory results taken from ChEMBL document CHEMBL1201862, “PubChem BioAssay data set” (2004).
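Assay format: 96-well plates, 48-hour exposure. GI50: concentration for 50% inhibition of growth.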 The source made the active and inactive calls. Cut-off read from the data, not from the text of the source: active = GI50 up to about 1.1 µM and inactive = higher.

Experiments:
Assay in all cases: DTP human tumour cell line panel, 48 h
HL-60 = test system: HL-60
OVCAR-8 = test system: OVCAR-8
IGROV-1 = test system: IGROV-1
RPMI-8226 = test system: RPMI-8226
SR = test system: SR
SF-539 = test system: SF-539
HCT-15 = test system: HCT-15
786-0 = test system: 786-0
HOP-18 = test system: HOP-18
NCI-H23 = test system: NCI-H23
HCC 2998 = test system: HCC 2998
M19-MEL = test system: M19-MEL
CAKI-1 = test system: CAKI-1
HOP-62 = test system: HOP-62
U-251 = test system: U-251
SK-OV-3 = test system: SK-OV-3
SN12C = test system: SN12C
UACC-62 = test system: UACC-62
SK-MEL-28 = test system: SK-MEL-28
ACHN = test system: ACHN
A549 = test system: A549
SW-620 = test system: SW-620
RXF 393 = test system: RXF 393
SK-MEL-2 = test system: SK-MEL-2
LOX IMVI = test system: LOX IMVI
EKVX = test system: EKVX
HOP-92 = test system: HOP-92
DMS-114 = test system: DMS-114
HT-29 = test system: HT-29
SF-295 = test system: SF-295
KM12 = test system: KM12
SF-268 = test system: SF-268
MOLT-4 = test system: MOLT-4
Malme-3M = test system: Malme-3M
RXF 631 = test system: RXF 631
SK-MEL-5 = test system: SK-MEL-5
OVCAR-3 = test system: OVCAR-3
UACC-257 = test system: UACC-257
NCI-H460 = test system: NCI-H460
HCT-116 = test system: HCT-116
NCI-H226 = test system: NCI-H226
K562 = test system: K562
KM-20L2 = test system: KM-20L2
OVCAR-5 = test system: OVCAR-5
SNB-19 = test system: SNB-19
CCRF-CEM = test system: CCRF-CEM
NCI-H522 = test system: NCI-H522
COLO 205 = test system: COLO 205
TK-10 = test system: TK-10
LXFL 529 = test system: LXFL 529
DLD-1 = test system: DLD-1
DMS-273 = test system: DMS-273
SNB-78 = test system: SNB-78
OVCAR-4 = test system: OVCAR-4
A498 = test system: A498

C[C@H](NC(=O)n1c2ccccc2c2ccccc21)C(=O)O
GI50 (HL-60): > 100 µM (inactive) | GI50 (OVCAR-8): > 100 µM (inactive) | GI50 (IGROV-1): > 100 µM (inactive) | GI50 (RPMI-8226): > 100 µM (inactive) | GI50 (SR): > 100 µM (inactive) | GI50 (SF-539): > 100 µM (inactive) | GI50 (HCT-15): > 100 µM | GI50 (786-0): > 100 µM (inactive) | GI50 (HOP-18): > 100 µM (inactive) | GI50 (NCI-H23): > 100 µM (inactive) | GI50 (HCC 2998): > 100 µM (inactive) | GI50 (M19-MEL): > 100 µM (inactive) | GI50 (CAKI-1): > 100 µM (inactive) | GI50 (HOP-62): > 100 µM (inactive) | GI50 (U-251): > 100 µM (inactive) | GI50 (SK-OV-3): > 100 µM (inactive) | GI50 (SN12C): > 100 µM (inactive) | GI50 (UACC-62): > 100 µM (inactive) | GI50 (SK-MEL-28): > 100 µM (inactive) | GI50 (ACHN): > 100 µM (inactive) | GI50 (A549): > 100 µM (inactive) | GI50 (SW-620): > 100 µM (inactive) | GI50 (RXF 393): > 100 µM (inactive) | GI50 (SK-MEL-2): > 100 µM (inactive) | GI50 (LOX IMVI): > 100 µM (inactive) | GI50 (EKVX): > 100 µM (inactive) | GI50 (HOP-92): > 100 µM (inactive) | GI50 (DMS-114): > 100 µM (inactive) | GI50 (HT-29): > 100 µM (inactive) | GI50 (SF-295): > 100 µM (inactive) | GI50 (KM12): > 100 µM (inactive) | GI50 (SF-268): > 100 µM (inactive) | GI50 (MOLT-4): > 100 µM (inactive) | GI50 (Malme-3M): > 100 µM (inactive) | GI50 (RXF 631): > 100 µM (inactive) | GI50 (SK-MEL-5): > 100 µM (inactive) | GI50 (OVCAR-3): > 100 µM (inactive) | GI50 (UACC-257): > 100 µM (inactive) | GI50 (NCI-H460): > 100 µM (inactive) | GI50 (HCT-116): > 100 µM (inactive) | GI50 (NCI-H226): > 100 µM (inactive) | GI50 (K562): > 100 µM (inactive) | GI50 (KM-20L2): > 100 µM (inactive) | GI50 (OVCAR-5): > 100 µM (inactive) | GI50 (SNB-19): > 100 µM (inactive) | GI50 (CCRF-CEM): > 100 µM (inactive) | GI50 (NCI-H522): > 100 µM (inactive) | GI50 (COLO 205): > 100 µM (inactive) | GI50 (TK-10): > 100 µM (inactive) | GI50 (LXFL 529): > 100 µM (inactive) | GI50 (DLD-1): > 100 µM (inactive) | GI50 (DMS-273): > 100 µM (inactive)

CC(C)(c1ccc(C=O)o1)c1ccc(C(C)(C)c2ccc(C=O)o2)o1
GI50 (HL-60): > 100 µM (inactive) | GI50 (OVCAR-8): > 100 µM (inactive) | GI50 (IGROV-1): > 100 µM (inactive) | GI50 (SR): > 100 µM (inactive) | GI50 (SF-539): > 100 µM (inactive) | GI50 (786-0): > 100 µM (inactive) | GI50 (HOP-18): > 100 µM (inactive) | GI50 (NCI-H23): > 100 µM (inactive) | GI50 (HCC 2998): > 100 µM (inactive) | GI50 (CAKI-1): > 100 µM (inactive) | GI50 (HOP-62): > 100 µM (inactive) | GI50 (U-251): > 100 µM (inactive) | GI50 (SK-OV-3): > 100 µM (inactive) | GI50 (SNB-78): > 100 µM (inactive) | GI50 (SK-MEL-28): > 100 µM (inactive) | GI50 (ACHN): > 100 µM (inactive) | GI50 (A549): > 100 µM (inactive) | GI50 (SW-620): > 100 µM (inactive) | GI50 (RXF 393): > 100 µM (inactive) | GI50 (SK-MEL-2): > 100 µM (inactive) | GI50 (LOX IMVI): > 100 µM (inactive) | GI50 (EKVX): > 100 µM (inactive) | GI50 (HOP-92): 69.5 µM (inactive) | GI50 (HT-29): > 100 µM (inactive) | GI50 (SF-295): > 100 µM (inactive) | GI50 (KM12): > 100 µM (inactive) | GI50 (SF-268): > 100 µM (inactive) | GI50 (MOLT-4): > 100 µM (inactive) | GI50 (Malme-3M): > 100 µM (inactive) | GI50 (RXF 631): > 100 µM (inactive) | GI50 (UACC-257): > 100 µM (inactive) | GI50 (NCI-H460): > 100 µM (inactive) | GI50 (HCT-116): > 100 µM (inactive) | GI50 (NCI-H226): > 100 µM (inactive) | GI50 (K562): > 100 µM (inactive) | GI50 (KM-20L2): > 100 µM (inactive) | GI50 (OVCAR-5): > 100 µM (inactive) | GI50 (SNB-19): > 100 µM (inactive) | GI50 (OVCAR-4): > 100 µM (inactive) | GI50 (CCRF-CEM): > 100 µM (inactive) | GI50 (NCI-H522): > 100 µM (inactive) | GI50 (COLO 205): > 100 µM (inactive) | GI50 (A498): > 100 µM (inactive) | GI50 (TK-10): > 100 µM (inactive) | GI50 (LXFL 529): > 100 µM (inactive) | GI50 (DMS-273): > 100 µM (inactive)
